Blank lines part the entries; values can stand above or below the compound they belong to. Activity calls are given as the source filed them.
What was measured:
[1] = target: T1, Alkaline phosphatase, tissue-nonspecific isozyme (Homo sapiens, UniProt P05186); experiment: human TNAP enzyme inhibitors, SAR follow-up, biochemical, luminescent, dose response (AID 1056)
T1 sequence (P05186 whole entry): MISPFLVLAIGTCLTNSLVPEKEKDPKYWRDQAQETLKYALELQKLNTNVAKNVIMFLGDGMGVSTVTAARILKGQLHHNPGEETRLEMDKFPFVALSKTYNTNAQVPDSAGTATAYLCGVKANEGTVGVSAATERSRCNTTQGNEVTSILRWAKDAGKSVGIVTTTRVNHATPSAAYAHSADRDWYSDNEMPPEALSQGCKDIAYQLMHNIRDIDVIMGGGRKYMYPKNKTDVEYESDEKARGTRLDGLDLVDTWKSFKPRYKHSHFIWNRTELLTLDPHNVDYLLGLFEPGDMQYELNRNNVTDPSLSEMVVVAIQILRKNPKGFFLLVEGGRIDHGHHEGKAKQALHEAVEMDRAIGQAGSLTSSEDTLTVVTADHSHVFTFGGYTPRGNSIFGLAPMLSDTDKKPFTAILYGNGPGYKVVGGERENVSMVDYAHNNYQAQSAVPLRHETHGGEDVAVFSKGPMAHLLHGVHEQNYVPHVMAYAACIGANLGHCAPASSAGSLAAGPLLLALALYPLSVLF

[2] = target: Glyceraldehyde-3-phosphate dehydrogenase (Homo sapiens, UniProt P04406)
Glyceraldehyde-3-phosphate dehydrogenase, sequence (P04406 whole entry): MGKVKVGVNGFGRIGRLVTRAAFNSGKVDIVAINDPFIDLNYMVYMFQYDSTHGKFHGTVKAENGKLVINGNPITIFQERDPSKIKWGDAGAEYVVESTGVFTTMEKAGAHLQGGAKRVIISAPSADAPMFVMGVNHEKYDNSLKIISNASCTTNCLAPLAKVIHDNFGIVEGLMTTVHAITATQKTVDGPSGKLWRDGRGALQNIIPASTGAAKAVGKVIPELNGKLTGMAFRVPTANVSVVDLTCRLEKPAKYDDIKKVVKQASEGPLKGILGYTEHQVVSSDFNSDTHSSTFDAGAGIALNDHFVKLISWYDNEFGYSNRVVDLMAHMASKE

SUMO-activating enzyme [3] = target: T2, SUMO-activating enzyme (Homo sapiens, UniProt Q9UBT2); experiment: inhibitors of in vitro SUMOylation cascade, primary screen, biochemical, HTRF, uHTS (AID 2006); format: protein-complex assay
T2 sequence (Q9UBE0 whole entry): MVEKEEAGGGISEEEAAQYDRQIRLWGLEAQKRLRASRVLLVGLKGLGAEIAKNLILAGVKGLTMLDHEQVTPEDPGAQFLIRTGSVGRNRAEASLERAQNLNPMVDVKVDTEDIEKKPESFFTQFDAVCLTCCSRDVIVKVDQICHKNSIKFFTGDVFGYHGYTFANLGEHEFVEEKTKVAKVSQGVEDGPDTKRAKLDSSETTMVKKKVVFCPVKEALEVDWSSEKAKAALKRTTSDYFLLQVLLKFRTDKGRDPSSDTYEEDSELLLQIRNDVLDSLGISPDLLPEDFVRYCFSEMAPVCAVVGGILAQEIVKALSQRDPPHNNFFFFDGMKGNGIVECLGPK
T2 sequence (Q9UBT2 whole entry): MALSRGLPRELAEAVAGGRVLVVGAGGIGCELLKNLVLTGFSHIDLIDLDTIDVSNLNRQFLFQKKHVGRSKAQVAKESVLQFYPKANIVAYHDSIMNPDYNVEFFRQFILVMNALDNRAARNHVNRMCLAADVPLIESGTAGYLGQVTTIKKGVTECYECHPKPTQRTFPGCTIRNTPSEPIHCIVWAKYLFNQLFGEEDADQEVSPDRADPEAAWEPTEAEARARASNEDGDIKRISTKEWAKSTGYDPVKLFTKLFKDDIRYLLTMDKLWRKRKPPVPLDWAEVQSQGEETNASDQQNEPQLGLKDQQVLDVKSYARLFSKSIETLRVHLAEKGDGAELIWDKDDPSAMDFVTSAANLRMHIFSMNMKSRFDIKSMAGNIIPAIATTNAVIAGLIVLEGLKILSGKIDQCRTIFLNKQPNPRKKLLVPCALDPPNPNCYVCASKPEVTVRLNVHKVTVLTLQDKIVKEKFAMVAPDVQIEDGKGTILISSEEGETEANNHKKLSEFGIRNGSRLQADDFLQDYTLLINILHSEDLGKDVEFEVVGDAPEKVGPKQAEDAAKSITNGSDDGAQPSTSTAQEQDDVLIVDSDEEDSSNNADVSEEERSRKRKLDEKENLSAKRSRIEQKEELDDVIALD

SUMO-activating enzyme [4] = target: T2, SUMO-activating enzyme; experiment: SUMOylation inhibitor hit validation, confirmation, SUMOylation inhibitor project, biochemical, AlphaScreen (AID 2018); format: functional
Cannabinoid receptor 1 [5] = target: T3, Cannabinoid receptor 1 (Homo sapiens, UniProt P21554); experiment: SAR analysis of agonists of the Cannabinoid Receptor 1 using an Image-Based Assay - Set 4. [Related pubchem assays (depositor defined):AID2013, AID2026]; format: functional
T3 sequence (P21554 whole entry): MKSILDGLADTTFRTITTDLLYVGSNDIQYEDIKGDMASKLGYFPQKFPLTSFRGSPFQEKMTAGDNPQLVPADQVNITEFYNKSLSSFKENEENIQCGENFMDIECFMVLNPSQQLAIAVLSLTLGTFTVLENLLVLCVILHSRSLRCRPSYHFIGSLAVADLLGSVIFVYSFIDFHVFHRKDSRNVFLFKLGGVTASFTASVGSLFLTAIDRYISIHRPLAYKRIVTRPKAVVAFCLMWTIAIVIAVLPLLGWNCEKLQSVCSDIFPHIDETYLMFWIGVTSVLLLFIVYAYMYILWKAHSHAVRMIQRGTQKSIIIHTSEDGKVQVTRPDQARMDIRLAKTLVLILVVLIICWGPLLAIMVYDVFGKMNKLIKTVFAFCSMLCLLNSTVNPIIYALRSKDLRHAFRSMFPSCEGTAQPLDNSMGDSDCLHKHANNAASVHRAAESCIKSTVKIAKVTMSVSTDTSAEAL

Cannabinoid receptor 2 [6] = target: T4, Cannabinoid receptor 2 (Homo sapiens, UniProt P34972); experiment: SAR analysis of antagonists of the Cannabinoid Receptor 2 using an Image-Based Assay - Set 3. [Related pubchem assays (depositor defined):AID2013, AID2026]; format: functional
T4 sequence (P34972 whole entry): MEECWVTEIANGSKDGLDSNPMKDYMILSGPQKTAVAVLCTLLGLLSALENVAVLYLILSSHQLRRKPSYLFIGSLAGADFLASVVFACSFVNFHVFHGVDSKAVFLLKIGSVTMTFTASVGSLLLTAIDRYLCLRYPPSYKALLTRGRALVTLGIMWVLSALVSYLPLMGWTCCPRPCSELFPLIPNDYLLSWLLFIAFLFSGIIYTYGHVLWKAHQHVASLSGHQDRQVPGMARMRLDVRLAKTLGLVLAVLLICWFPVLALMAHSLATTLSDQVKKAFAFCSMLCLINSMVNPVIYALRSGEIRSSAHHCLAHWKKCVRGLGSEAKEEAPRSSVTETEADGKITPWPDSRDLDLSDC

Cannabinoid receptor 1 [7] = target: T3, Cannabinoid receptor 1; experiment: SAR analysis of antagonists of the Cannabinoid Receptor 1 using an Image-Based Assay - Set 4. [Related pubchem assays (depositor defined):AID2013, AID2026]; format: functional
[8] = target: G-protein coupled receptor 55 (Homo sapiens, UniProt Q9Y2T6); experiment: SAR Analysis of Selective Antagonists of GPR55 using an Image-Based Assay - Set 4. [Related pubchem assays (depositor defined):AID2013, AID2026]; format: functional;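 also: antagonism of response to 5 µM lysophosphatidylinositol agonist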
G-protein coupled receptor 55, sequence (Q9Y2T6 whole entry): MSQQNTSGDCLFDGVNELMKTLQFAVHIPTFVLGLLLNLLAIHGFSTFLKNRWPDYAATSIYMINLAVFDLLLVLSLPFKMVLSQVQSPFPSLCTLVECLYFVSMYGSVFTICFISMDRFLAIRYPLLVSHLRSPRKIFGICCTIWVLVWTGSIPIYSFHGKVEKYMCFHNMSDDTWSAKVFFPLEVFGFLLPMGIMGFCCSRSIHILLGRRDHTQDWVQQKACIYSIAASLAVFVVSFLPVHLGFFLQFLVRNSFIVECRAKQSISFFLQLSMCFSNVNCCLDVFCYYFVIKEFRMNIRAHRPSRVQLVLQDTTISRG

[9] = target: T5, G-protein coupled receptor 35 (Homo sapiens, UniProt Q9HC97); experiment: SAR analysis of Agonists of the GPR35 Receptor using an Image-Based Assay - Set 4. [Related pubchem assays (depositor defined):AID2013, AID2026]; format: functional
T5 sequence (Q9HC97 whole entry): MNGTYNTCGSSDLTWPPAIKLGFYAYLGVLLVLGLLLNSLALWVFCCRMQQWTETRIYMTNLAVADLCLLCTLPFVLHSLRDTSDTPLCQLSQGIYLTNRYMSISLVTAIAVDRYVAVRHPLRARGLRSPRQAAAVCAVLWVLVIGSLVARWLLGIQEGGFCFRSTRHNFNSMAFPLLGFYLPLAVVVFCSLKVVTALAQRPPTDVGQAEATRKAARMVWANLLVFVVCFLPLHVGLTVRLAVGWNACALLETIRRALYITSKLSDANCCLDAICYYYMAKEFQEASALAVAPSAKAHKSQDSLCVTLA

Cannabinoid receptor 2 [10] = target: T4, Cannabinoid receptor 2; experiment: SAR analysis of agonists of the Cannabinoid Receptor 2 using an Image-Based Assay - Set 3. [Related pubchem assays (depositor defined):AID2013, AID2026]; format: functional
[11] = target: T5, G-protein coupled receptor 35; experiment: SAR analysis of Antagonists of the GPR35 Receptor using an Image-Based Assay - Set 6. [Related pubchem assays (depositor defined):AID2013, AID2026]; format: functional
Hexokinase-1 = Hexokinase-1 (Homo sapiens, UniProt P19367); experiment: hexokinase 1 activators, dose response, selectivity assay for HKDC1 activator project, biochemical (AID 504762); format: functional
Hexokinase-1, sequence (P19367 whole entry): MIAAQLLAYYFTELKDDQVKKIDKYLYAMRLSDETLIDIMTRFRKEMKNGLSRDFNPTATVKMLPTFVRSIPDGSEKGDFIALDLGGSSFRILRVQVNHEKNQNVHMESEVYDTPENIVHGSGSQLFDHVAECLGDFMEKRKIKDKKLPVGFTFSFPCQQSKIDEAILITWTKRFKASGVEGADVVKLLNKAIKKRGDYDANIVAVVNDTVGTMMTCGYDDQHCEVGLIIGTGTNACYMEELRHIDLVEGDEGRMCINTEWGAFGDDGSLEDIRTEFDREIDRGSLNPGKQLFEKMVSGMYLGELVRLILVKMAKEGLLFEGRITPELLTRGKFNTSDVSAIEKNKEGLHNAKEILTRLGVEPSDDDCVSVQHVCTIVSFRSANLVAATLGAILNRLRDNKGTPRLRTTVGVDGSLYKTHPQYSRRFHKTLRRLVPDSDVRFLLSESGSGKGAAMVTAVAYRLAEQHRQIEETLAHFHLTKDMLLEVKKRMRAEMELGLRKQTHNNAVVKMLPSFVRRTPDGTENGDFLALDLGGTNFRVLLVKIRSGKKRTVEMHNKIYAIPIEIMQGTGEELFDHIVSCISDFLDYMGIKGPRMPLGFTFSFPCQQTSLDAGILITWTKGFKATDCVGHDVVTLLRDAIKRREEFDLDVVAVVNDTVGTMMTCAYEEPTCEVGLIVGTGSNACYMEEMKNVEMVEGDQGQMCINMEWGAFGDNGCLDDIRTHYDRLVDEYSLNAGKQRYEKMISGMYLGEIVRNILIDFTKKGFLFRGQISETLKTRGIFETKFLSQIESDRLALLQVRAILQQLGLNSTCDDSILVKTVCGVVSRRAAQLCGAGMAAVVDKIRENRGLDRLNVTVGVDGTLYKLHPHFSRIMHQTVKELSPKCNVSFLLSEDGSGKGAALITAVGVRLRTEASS

[12] = inhibitors of intracellular T. cruzi replication, confirmation, NIH3T3 host cells, beta-gal luminescence (AID 2044); format: functional, cell-based;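 also: intracellular parasites grown in NIH/3T3 mouse fibroblasts as host cells; luminescent beta-galactosidase reporter signal from transgenic T. cruzi replicating inside host cells; inhibitors lower the luminescence signal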
Paired box protein Pax-8 = Paired box protein Pax-8 (Homo sapiens, UniProt Q06710); experiment: inhibitors of PAX8-driven TPO luciferase reporter, dose response, RMG-I cells, cherry-pick (AID 687027); format: functional, cell-based;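 also: luciferase reporter driven by Pax8 target thyroperoxidase promoter measured by SteadyGlo luminescence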
Paired box protein Pax-8, sequence (Q06710 whole entry): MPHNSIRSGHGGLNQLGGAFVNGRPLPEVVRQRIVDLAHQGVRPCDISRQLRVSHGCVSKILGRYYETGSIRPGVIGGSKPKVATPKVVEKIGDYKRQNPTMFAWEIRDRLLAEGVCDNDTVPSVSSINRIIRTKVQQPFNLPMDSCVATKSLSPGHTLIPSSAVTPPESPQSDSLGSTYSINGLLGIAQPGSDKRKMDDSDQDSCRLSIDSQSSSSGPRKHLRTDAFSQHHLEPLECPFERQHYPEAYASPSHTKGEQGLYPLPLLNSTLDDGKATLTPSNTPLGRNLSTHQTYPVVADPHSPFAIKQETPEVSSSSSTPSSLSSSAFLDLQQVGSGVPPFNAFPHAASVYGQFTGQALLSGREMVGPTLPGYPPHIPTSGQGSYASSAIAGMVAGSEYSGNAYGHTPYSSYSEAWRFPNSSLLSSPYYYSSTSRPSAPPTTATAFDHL

[13] = cytotoxicity toward NIH3T3 fibroblasts, dose response, counter-screen, cell-based, ATP luminescence, mouse fibroblasts (AID 2010); format: functional;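 also: cells exposed to compound for about 90 hours before reading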
INS1 = experiment: beta cell apoptosis inhibitors, cytokine rescue, dose response, luminescence, retest (AID 449756); format: functional, cell-based; settings: Rattus norvegicus;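 also: cell death triggered by IL-1 beta plus TNF-alpha plus IFN-gamma mixture; protective hits raise ATP signal compared with cytokine alone wells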
Hexokinase HKDC1 = target: T6, Hexokinase HKDC1 (Homo sapiens, UniProt Q2TB90); experiment: HKDC1 hexokinase activators, dose response, biochemical, W721R variant (AID 504730); format: functional
T6 sequence (Q2TB90 whole entry): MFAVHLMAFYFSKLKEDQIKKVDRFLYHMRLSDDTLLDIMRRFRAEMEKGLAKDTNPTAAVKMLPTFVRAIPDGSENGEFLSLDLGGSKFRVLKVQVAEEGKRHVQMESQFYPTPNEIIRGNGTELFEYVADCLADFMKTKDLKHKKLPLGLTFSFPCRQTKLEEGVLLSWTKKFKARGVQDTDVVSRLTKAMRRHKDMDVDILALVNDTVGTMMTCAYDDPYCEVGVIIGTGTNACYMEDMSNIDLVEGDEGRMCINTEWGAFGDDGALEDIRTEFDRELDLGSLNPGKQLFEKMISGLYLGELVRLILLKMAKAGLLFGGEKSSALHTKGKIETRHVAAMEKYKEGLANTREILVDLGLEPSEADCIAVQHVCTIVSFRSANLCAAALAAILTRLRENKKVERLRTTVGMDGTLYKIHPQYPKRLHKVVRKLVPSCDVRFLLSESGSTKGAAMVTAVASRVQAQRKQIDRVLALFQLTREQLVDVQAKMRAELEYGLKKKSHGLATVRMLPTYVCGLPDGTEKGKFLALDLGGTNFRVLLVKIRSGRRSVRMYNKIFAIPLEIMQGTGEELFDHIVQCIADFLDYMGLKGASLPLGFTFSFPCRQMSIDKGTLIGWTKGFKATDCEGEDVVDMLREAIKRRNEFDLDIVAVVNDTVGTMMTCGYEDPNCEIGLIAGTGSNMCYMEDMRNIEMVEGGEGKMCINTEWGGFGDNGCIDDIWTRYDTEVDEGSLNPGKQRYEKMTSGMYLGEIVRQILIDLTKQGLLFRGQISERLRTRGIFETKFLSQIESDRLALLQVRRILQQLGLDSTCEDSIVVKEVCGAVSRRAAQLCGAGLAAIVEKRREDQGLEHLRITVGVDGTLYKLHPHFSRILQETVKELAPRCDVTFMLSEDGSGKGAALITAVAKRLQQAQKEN

[14] = target: Intestinal-type alkaline phosphatase (Homo sapiens, UniProt P09923); experiment: Dose Response confirmation of uHTS hits from a small molecule inhibitors of human intestinal alkaline phosphatase via a luminescent assay. [Related pubchem assays (depositor defined):AID2544, AID2574]; format: functional
Intestinal-type alkaline phosphatase, sequence (P09923 whole entry): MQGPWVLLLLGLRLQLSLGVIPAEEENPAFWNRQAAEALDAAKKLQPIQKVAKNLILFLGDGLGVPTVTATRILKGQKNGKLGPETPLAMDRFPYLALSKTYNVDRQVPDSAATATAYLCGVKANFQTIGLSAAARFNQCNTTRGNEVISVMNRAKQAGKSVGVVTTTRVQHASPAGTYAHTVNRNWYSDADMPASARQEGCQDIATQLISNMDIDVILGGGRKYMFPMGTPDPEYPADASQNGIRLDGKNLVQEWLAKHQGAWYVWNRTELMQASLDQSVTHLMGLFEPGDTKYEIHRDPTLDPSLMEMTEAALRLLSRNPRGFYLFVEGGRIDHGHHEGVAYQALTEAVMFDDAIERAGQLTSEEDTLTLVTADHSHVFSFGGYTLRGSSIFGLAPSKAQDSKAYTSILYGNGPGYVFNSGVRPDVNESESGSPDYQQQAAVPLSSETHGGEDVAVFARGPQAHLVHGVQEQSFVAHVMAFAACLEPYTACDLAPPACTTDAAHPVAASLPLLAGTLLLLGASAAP

T-cell = experiment: inhibitors of CD8+ T cell–vesicle binding, dose response, mouse 2C CD8+ T cells, flow cytometry (AID 485284); format: functional

SMILES: O=C(/C=C/c1ccco1)NC(=S)Nc1ccc(O)c(-c2nc3ccccc3s2)c1
IC50 (SUMO-activating enzyme [3]): 18 µM (active) | IC50 (SUMO-activating enzyme [4]): 12.1 µM (active)

SMILES: COc1ccc(C2=NN=C(Nc3cc(S(=O)(=O)N(C)C)ccc3C)SC2)c(OC)c1
EC50 (Hexokinase-1): 17.4 µM (active) | EC50 [12]: 3.57 µM (active) | AC50 (Paired box protein Pax-8): 6.77 µM (active) | EC50 [13]: 5.85 µM (active) | AC50 (INS1): 5.48 µM (active) | EC50 (Hexokinase HKDC1): 18.5 µM (active)

SMILES: COc1ccc(C2=Nc3cc(C)ccc3OC2)cc1
IC50 [14]: > 100 µM (inactive) | EC50 (T-cell): 8.65 µM (active)

Other lines, results leading:

IC50 [1]: > 100 µM (inactive) | IC50 [2]: > 100 µM (not active)
SMILES: COc1ccc(Cc2nnc(N3C(=O)[C@H]4CCCC[C@H]4C3=O)[nH]2)cc1

EC50 (Cannabinoid receptor 1 [5]): > 32 µM (inactive) | IC50 (Cannabinoid receptor 2 [6]): 22.9 µM (inactive) | IC50 (Cannabinoid receptor 1 [7]): 3.31 µM (active) | IC50 [8]: 7.6 µM (active) | EC50 [9]: > 32 µM (inactive) | EC50 (Cannabinoid receptor 2 [10]): > 32 µM (inactive) | IC50 [11]: > 32 µM (inactive)
SMILES: Cc1ccc(C(C)C(=O)N2CCC(n3nc(-c4ccccc4)oc3=O)CC2)cc1 (stereo unspecified)

IC50 (SUMO-activating enzyme [3]): 28.8 µM (active) | IC50 (SUMO-activating enzyme [4]): 3.28 µM (active)
SMILES: Sc1nnc(-c2ccncc2)n1/N=C/c1cn(-c2ccccc2)nc1-c1ccc(Cl)cc1
